For 49 molecules, IC50 results are on record in ChEMBL document CHEMBL4184286, “Discovery of morpholine-based aryl sulfonamides as Nav1.7 inhibitors” (Bioorg Med Chem Lett, 2018).

In assay [1] the target is Sodium channel protein type 9 subunit alpha (Homo sapiens, UniProt Q15858). The assay is described as follows: Antagonist activity at recombinant human Nav1.7 expressed in HEK293 cells assessed as reduction in channel current at -60 mV holding potential after 600 secs by barracuda automated electrophysiology method. It counts as cell-based.
In assay [2] the target is Sodium channel protein type 5 subunit alpha (Homo sapiens, UniProt Q14524). The assay can be described thus: Antagonist activity at recombinant human Nav1.5 expressed in HEK293 cells assessed as reduction in channel current at -50 mV holding potential after 600 secs by barracuda automated electrophysiology method. It counts as ADME, cell-based.

Molecules are shown by their SMILES. pIC50: −log10 of the molar value. A value given as a limit tells only on which side of the number the result lay.

Sequence of Sodium channel protein type 9 subunit alpha (Q15858 whole entry): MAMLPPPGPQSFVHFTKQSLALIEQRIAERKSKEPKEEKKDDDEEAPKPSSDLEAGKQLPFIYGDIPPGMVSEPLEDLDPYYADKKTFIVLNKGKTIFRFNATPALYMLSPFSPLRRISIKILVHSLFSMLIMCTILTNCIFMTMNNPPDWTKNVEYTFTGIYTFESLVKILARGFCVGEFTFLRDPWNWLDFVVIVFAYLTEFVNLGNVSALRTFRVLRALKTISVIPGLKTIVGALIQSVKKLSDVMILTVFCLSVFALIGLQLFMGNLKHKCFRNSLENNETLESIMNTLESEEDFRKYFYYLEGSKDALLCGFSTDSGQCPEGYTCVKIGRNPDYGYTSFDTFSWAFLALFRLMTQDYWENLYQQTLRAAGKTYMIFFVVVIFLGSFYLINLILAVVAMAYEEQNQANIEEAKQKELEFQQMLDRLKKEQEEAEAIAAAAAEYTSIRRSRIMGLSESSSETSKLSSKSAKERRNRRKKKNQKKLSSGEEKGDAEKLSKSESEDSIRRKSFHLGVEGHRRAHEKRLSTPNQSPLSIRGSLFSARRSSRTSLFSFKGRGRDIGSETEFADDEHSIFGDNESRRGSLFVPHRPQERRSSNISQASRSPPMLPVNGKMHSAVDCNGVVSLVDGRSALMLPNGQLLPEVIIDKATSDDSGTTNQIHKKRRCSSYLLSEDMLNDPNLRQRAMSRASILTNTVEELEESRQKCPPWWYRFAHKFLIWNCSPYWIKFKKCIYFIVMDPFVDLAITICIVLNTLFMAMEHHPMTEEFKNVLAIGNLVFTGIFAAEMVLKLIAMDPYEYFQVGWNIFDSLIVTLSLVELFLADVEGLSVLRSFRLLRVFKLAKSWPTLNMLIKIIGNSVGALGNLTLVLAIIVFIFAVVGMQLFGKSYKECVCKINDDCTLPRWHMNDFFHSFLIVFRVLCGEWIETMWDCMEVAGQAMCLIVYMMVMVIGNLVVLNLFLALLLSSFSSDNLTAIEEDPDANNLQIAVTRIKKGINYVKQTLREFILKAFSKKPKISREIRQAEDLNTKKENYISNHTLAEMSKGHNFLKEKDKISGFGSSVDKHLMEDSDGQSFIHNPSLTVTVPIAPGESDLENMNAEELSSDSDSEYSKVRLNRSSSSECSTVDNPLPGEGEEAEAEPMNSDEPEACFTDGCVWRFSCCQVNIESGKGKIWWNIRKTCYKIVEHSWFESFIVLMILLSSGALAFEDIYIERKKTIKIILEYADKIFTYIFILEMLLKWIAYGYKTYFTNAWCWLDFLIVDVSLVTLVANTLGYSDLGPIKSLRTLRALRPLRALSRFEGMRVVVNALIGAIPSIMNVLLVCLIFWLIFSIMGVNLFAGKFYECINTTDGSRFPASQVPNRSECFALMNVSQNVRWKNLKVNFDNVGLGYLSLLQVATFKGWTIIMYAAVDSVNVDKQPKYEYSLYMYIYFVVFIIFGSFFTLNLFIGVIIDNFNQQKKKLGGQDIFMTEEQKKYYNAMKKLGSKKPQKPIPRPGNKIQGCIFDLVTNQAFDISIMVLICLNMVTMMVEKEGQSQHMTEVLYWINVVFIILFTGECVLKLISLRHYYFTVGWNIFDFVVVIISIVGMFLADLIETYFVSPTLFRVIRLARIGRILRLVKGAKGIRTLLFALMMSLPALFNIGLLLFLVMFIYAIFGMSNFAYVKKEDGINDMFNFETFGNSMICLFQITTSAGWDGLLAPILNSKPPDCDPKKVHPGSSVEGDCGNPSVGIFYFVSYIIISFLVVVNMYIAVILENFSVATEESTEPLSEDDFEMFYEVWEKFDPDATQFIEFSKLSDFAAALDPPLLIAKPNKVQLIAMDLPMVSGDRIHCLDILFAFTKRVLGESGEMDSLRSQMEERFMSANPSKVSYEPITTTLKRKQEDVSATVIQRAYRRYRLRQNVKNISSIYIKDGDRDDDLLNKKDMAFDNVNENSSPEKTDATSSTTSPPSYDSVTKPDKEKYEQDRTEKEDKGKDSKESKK
Sequence of Sodium channel protein type 5 subunit alpha (Q14524 whole entry): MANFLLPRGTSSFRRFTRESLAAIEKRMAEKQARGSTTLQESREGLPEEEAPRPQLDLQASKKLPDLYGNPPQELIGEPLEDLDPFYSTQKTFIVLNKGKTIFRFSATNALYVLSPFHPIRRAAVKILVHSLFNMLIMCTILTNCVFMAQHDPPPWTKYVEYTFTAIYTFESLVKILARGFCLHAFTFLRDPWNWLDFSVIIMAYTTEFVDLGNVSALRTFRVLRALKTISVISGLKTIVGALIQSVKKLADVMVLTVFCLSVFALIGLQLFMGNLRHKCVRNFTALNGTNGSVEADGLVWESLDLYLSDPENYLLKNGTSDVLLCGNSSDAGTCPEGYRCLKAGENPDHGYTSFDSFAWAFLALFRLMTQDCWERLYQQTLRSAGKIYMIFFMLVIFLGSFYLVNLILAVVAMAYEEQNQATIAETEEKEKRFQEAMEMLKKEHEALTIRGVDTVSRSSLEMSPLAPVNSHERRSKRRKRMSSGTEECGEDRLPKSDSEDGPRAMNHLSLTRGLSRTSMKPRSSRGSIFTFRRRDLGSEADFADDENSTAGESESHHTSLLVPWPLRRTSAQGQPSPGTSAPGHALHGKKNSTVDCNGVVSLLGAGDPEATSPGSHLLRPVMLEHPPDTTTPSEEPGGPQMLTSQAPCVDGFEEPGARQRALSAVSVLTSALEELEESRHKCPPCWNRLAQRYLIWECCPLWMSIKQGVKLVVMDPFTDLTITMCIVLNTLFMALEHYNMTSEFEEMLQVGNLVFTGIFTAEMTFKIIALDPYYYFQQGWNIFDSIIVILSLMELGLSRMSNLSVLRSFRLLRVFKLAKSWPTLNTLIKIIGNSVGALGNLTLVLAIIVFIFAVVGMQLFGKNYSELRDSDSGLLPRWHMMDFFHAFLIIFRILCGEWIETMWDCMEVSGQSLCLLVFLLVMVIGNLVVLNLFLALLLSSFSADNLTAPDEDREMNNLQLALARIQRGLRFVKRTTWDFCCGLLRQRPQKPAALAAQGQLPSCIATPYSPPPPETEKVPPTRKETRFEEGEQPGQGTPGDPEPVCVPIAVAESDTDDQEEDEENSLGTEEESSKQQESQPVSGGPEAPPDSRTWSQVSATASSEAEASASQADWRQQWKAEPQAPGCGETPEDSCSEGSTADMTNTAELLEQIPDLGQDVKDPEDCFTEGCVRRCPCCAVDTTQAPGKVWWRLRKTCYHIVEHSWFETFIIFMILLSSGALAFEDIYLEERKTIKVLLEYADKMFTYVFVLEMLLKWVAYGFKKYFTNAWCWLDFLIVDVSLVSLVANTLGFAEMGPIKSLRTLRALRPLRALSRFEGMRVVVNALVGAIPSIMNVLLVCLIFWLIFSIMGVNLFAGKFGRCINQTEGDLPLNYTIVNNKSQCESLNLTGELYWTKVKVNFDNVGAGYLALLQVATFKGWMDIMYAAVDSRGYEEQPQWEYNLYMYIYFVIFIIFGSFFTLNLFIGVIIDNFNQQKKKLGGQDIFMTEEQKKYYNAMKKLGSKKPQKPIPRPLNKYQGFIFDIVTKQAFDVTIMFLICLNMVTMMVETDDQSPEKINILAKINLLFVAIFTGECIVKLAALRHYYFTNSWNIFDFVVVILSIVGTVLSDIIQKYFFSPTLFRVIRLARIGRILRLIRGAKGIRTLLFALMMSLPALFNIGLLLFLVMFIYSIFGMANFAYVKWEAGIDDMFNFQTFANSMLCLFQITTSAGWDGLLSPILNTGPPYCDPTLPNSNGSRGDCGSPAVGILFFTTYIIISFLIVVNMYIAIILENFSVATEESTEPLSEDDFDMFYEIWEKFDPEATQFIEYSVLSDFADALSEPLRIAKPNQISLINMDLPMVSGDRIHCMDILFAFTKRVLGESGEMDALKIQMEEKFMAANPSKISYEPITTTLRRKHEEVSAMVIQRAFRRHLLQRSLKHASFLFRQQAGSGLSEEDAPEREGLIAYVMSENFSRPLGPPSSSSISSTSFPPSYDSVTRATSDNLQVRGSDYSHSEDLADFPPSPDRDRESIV

One may read the pIC50 as the negative decadic logarithm of the IC50, by convention in mol/L. On to `CC(C)[C@H]1COC(Oc2cc(F)c(S(=O)(=O)Nc3ncns3)cc2F)C(c2cc(Cl)cc(Cl)c2)N1` (single isomer, unassigned; isomer A), for which the pIC50 in assay [1] was 6.37.

For the molecule `CC1(C)COC(Oc2cc(F)c(S(=O)(=O)Nc3ncns3)cc2F)C(c2ccc(Cl)cc2)N1` (single isomer, unassigned; isomer B), the pIC50 in assay [1] was 6.24.

For `COc1ccccc1C1NCCOC1Oc1cc(F)c(S(=O)(=O)Nc2ncns2)cc1F` (single isomer, unassigned; isomer B), the pIC50 was less than 4.52 in assay [2] (hek293) and 5.34 in assay [1].

Take `O=S(=O)(Nc1ncns1)c1cc(F)c(OC[C@H]2OCCN[C@@H]2c2ccc(Cl)cc2)cc1F`: in assay [1], the pIC50 was 4.54.

Turning to `COc1ccc(C2NCCOC2Oc2cc(F)c(S(=O)(=O)Nc3ncns3)cc2F)cc1` (single isomer, unassigned; isomer B), the pIC50 is less than 4.52 in assay [2] (hek293) and 5.74 in assay [1].

Take `CC(C)C[C@H]1COC(Oc2cc(F)c(S(=O)(=O)Nc3ncns3)cc2F)C(c2cc(Cl)cc(Cl)c2)N1` (single isomer, unassigned; isomer A): the negative-log IC50 (pIC50) in assay [1] is 5.96.

Consider `COc1cccc(C2NCCOC2Oc2cc(F)c(S(=O)(=O)Nc3ncns3)cc2F)c1` (single isomer, unassigned; isomer A), for which the pIC50 in assay [2] was less than 4.52; in assay [1], 6.41.

In the case of `O=S(=O)(Nc1ncns1)c1cc(F)c(OC2OCCNC2c2ccc(Cl)nc2)cc1F` (single isomer, unassigned; isomer B), the figures for the pIC50 in assay [2] and in assay [1] were less than 4.52 and 4.82, respectively.

On to `CC1(C)COC(Oc2cc(F)c(S(=O)(=O)Nc3ncns3)cc2F)C(c2ccc(Cl)cc2)N1` (single isomer, unassigned; isomer A), for which the pIC50 in assay [1] is 6.46.

Turning to `O=S(=O)(Nc1ncns1)c1cc(F)c(OC2OCCNC2c2ccc(Cl)c(Cl)c2)cc1F` (single isomer, unassigned; isomer B), the pIC50 in assay [2] is 5.52; in assay [1], 6.77.

For the molecule `O=S(=O)(Nc1ncns1)c1cc(F)c(OC2OCCNC2c2ccc(C(F)(F)F)cc2)cc1F` (single isomer, unassigned; isomer B), the pIC50 was less than 4.52 in assay [2] (hek293) and 5.01 in assay [1].

On to `CC(C)[C@H]1COC(Oc2cc(F)c(S(=O)(=O)Nc3ncns3)cc2F)C(c2cc(Cl)cc(Cl)c2)N1` (single isomer, unassigned; isomer B), for which, in assay [1], the pIC50 is 5.96.

Take `O=S(=O)(Nc1ncns1)c1cc(F)c(OC2OCCNC2c2ccc3cnccc3c2)cc1F` (single isomer, unassigned; isomer A): the negative logarithm of the IC50 (pIC50) in assay [2] (hek293) was less than 4.52; in assay [1], 5.85.

As for `CC1(C)CNC(c2cc(Cl)cc(Cl)c2)C(Oc2cc(F)c(S(=O)(=O)Nc3ncns3)cc2F)O1` (single isomer, unassigned; isomer B), the negative logarithm of the IC50 (pIC50) in assay [1] is 6.35.

Turning to `O=S(=O)(Nc1ncns1)c1cc(F)c(OC2OCCNC2c2cc(Cl)cc(Cl)c2)cc1F` (single isomer, unassigned; isomer A), the pIC50 in assay [2] (hek293) is 5.25; in assay [1] it was 6.08.

`CC(C)[C@@H]1COC(Oc2cc(F)c(S(=O)(=O)Nc3ncns3)cc2F)C(c2cc(Cl)cc(Cl)c2)N1` (stereo in doubt; 66): the pIC50 in assay [1] is 4.85.

As to `O=S(=O)(Nc1ncns1)c1cc(F)c(OC2OCCNC2c2ccc(Cl)cc2Cl)cc1F` (single isomer, unassigned; isomer A), the pIC50 in assay [2] is 5.77; in assay [1] it was 6.59.

`O=S(=O)(Nc1ncns1)c1cc(F)c(OC2OCCNC2c2ccc(F)cc2)cc1F` (single isomer, unassigned; isomer A): the pIC50 was less than 4.52 in assay [2] and 6.16 in assay [1].

Regarding `O=S(=O)(Nc1ncns1)c1cc(F)c(OC2OCCNC2c2cccc(C(F)(F)F)c2)cc1F` (single isomer, unassigned; isomer A), the pIC50 was 6.24 in assay [2] and 6.51 in assay [1].

Consider `CC(C)C[C@@H]1COC(Oc2cc(F)c(S(=O)(=O)Nc3ncns3)cc2F)C(c2cc(Cl)cc(Cl)c2)N1` (single isomer, unassigned; isomer B), for which the pIC50 in assay [1] was less than 4.52.

For `O=S(=O)(Nc1ncns1)c1cc(F)c(OC2OCCNC2c2ccc3c(c2)OCO3)cc1F` (single isomer, unassigned; isomer A), the pIC50 is less than 4.52 in assay [2] (hek293) and 5.82 in assay [1].

Turning to `CC1(C)CN[C@@H](c2cc(Cl)cc(Cl)c2)[C@H](Oc2cc(F)c(S(=O)(=O)Nc3ncns3)cc2F)O1`, the negative logarithm of the IC50 (pIC50) in assay [2] was 5.36; in assay [1], 5.48.

`N#Cc1cccc(C2NCCOC2Oc2cc(F)c(S(=O)(=O)Nc3ncns3)cc2F)c1` (single isomer, unassigned; isomer B): the results for the pIC50 in assay [2] (hek293) and in assay [1] were less than 4.52 and 4.96, respectively.

As to `Cn1nc(C(F)(F)F)cc1C1NCCOC1Oc1cc(F)c(S(=O)(=O)Nc2ncns2)cc1F` (single isomer, unassigned; isomer B), the pIC50 in assay [2] is less than 4.52; in assay [1], 5.35.

As to `O=S(=O)(Nc1ncns1)c1cc(F)c(OC2OCCNC2c2ccc(C(F)(F)F)cc2)cc1F` (single isomer, unassigned; isomer A), the pIC50 in assay [2] was less than 4.52; in assay [1] it was 6.41.

Turning to `O=S(=O)(Nc1ncns1)c1cc(F)c(CO[C@H]2OCCN[C@@H]2c2ccc(F)cc2)cc1F`, the pIC50 in assay [1] was 5.60.

`O=S(=O)(Nc1ncns1)c1cc(F)c(OC2OCCNC2c2cc(Cl)cc(Cl)c2)cc1F` (single isomer, unassigned; isomer B): the negative logarithm of the IC50 (pIC50) in assay [2] was 5.25; in assay [1] it was 7.55.

For `O=S(=O)(Nc1ncns1)c1cc(F)c(OC2OCCNC2c2ccc3cnccc3c2)cc1F` (single isomer, unassigned; isomer B), the pIC50 in assay [2] was less than 4.52; in assay [1], 6.29.

In the case of `COc1cccc(C2NCCOC2Oc2cc(F)c(S(=O)(=O)Nc3ncns3)cc2F)c1` (single isomer, unassigned; isomer B), the pIC50 in assay [2] (hek293) was less than 4.52; in assay [1], 5.80.

Take `O=S(=O)(Nc1ncns1)c1cc(F)c(OC2OCCNC2c2cccc(C(F)(F)F)c2)cc1F` (single isomer, unassigned; isomer B): the negative-log IC50 (pIC50) in assay [2] was 5.32; in assay [1] it was 6.24.

For the molecule `CC(C)C[C@@H]1COC(Oc2cc(F)c(S(=O)(=O)Nc3ncns3)cc2F)C(c2cc(Cl)cc(Cl)c2)N1` (single isomer, unassigned; isomer A), in assay [1], the pIC50 is 5.77.

Regarding `O=S(=O)(Nc1ncns1)c1cc(F)c(OC2OCCNC2c2ccc3ncccc3c2)cc1F` (single isomer, unassigned; isomer B), the figures for the pIC50 in assay [2] and in assay [1] were less than 4.52 and 5.80, respectively.

Take `N#Cc1ccc(C2NCCOC2Oc2cc(F)c(S(=O)(=O)Nc3ncns3)cc2F)cc1` (single isomer, unassigned; isomer B): the pIC50 in assay [2] (hek293) is less than 4.52; in assay [1] it was 5.40.

As to `CC(C)C[C@H]1COC(Oc2cc(F)c(S(=O)(=O)Nc3ncns3)cc2F)C(c2cc(Cl)cc(Cl)c2)N1` (stereo in doubt; 61), the pIC50 in assay [1] was 5.19.

On to `CN(C)c1noc2ccc(C3NCCOC3Oc3cc(F)c(S(=O)(=O)Nc4ncns4)cc3F)cc12` (single isomer, unassigned; isomer A), for which, in assay [1], the pIC50 is 7.15.

For the molecule `O=S(=O)(Nc1ncns1)c1cc(F)c(OC2OCCNC2c2ccc3c(c2)OCO3)cc1F` (single isomer, unassigned; isomer B), the values for the pIC50 in assay [2] and in assay [1] were less than 4.52 and 5.96, respectively.

As to `O=S(=O)(Nc1ncns1)c1cc(F)c(OC2OCCNC2c2cccc3nccnc23)cc1F` (single isomer, unassigned; isomer B), the negative logarithm of the IC50 (pIC50) in assay [2] was less than 4.52; in assay [1], 5.20.

For the molecule `COc1ccccc1C1NCCOC1Oc1cc(F)c(S(=O)(=O)Nc2ncns2)cc1F` (single isomer, unassigned; isomer A), the negative-log IC50 (pIC50) is less than 4.52 in assay [2] and 6.70 in assay [1].

As for `Cn1nccc1C1NCCOC1Oc1cc(F)c(S(=O)(=O)Nc2ncns2)cc1F` (stereo in doubt; 55), the pIC50 is less than 4.52 in assay [2] and 5.74 in assay [1].

Turning to `O=S(=O)(Nc1ncns1)c1cc(F)c(OC[C@H]2NCCO[C@@H]2c2ccc(Cl)cc2)cc1F`, in assay [1], the pIC50 was 5.82.

As to `COc1ccc(C2NCCOC2Oc2cc(F)c(S(=O)(=O)Nc3ncns3)cc2F)cc1` (single isomer, unassigned; isomer A), the negative logarithm of the IC50 (pIC50) in assay [2] is less than 4.52; in assay [1], 6.09.

On to `O=S(=O)(Nc1ncns1)c1cc(F)c(OC2OCCNC2c2ccc3ncccc3c2)cc1F` (single isomer, unassigned; isomer A), for which the pIC50 was less than 4.52 in assay [2] (hek293) and 5.55 in assay [1].

Regarding `O=S(=O)(Nc1ncns1)c1cc(F)c(OC2OCCNC2c2cccc3nccnc23)cc1F` (single isomer, unassigned; isomer A), the values for the pIC50 in assay [2] (hek293) and in assay [1] were less than 4.52 and 5.18, respectively.

Turning to `CC(C)[C@@H]1COC(Oc2cc(F)c(S(=O)(=O)Nc3ncns3)cc2F)C(c2cc(Cl)cc(Cl)c2)N1` (single isomer, unassigned; isomer B), in assay [1], the pIC50 is 4.60.

Take `Cn1nccc1C1NCCOC1Oc1cc(F)c(S(=O)(=O)Nc2ncns2)cc1F` (single isomer, unassigned; isomer A): the pIC50 was less than 4.52 in assay [2] (hek293) and 5.24 in assay [1].

On to `N#Cc1cccc(C2NCCOC2Oc2cc(F)c(S(=O)(=O)Nc3ncns3)cc2F)c1` (single isomer, unassigned; isomer A), for which the values for the pIC50 in assay [2] and in assay [1] were less than 4.52 and 6.04, respectively.

Turning to `O=S(=O)(Nc1ncns1)c1cc(F)c(OC2OCCNC2c2ccc(Cl)nc2)cc1F` (single isomer, unassigned; isomer A), the values for the pIC50 in assay [2] (hek293) and in assay [1] were less than 4.52 and 4.77, respectively.

`N#Cc1ccc(C2NCCOC2Oc2cc(F)c(S(=O)(=O)Nc3ncns3)cc2F)cc1` (single isomer, unassigned; isomer A): the values for the pIC50 in assay [2] and in assay [1] were less than 4.52 and 5.82, respectively.

Turning to `CC1(C)CNC(c2cc(Cl)cc(Cl)c2)C(Oc2cc(F)c(S(=O)(=O)Nc3ncns3)cc2F)O1` (single isomer, unassigned; isomer A), the pIC50 in assay [1] is 6.85.
